Measured values published in patent US8815864B2, “Indanyloxydihydrobenzofuranylacetic acids” (Boehringer Ingelheim International GmbH, priority 2012, dated 2014).

What follows are compounds tested against human GPR40 receptor (Homo sapiens, UniProt O14842) (assay: IP1 accumulation measurements using the IPOne assay system). Conditions: 1321N1 cells stably expressing human GPR40; stimulation 1 h at 37° C.
Assay type: cell-based
Description: IP1 accumulation measurements using the IPOne assay system—1321N1 cells stably expressing human GPR40 receptor (Euroscreen, Belgium) are seeded 24 h before the assay in white 384-well plates in culture medium containing 10% FCS, 1% Na-Pyruvate and 400 μg/mL G418. IP1 is assayed according to the manufacturer's description (Cisbio Bioassays, France). In brief, the assay is started by substitution of the culture medium by stimulation buffer (Hepes 10 mM, CaCl2 1 mM, MgCl2 0.5 mM, KCl 4.2 mM, NaCl 146 mM, glucose 5.5 mM and LiCl 50 mM, pH 7.4). Cells are stimulated for 1 h at 37° C., 5% CO2 by addition of the compounds that are diluted in stimulation buffer containing LiCl. Assays are stopped by adding HTRF-conjugates (IP1-d2 and Anti-IP1 cryptate Tb) and lysis buffer, provided by the manufacturer. After an incubation time of 1 h at room temperature plates are measured using an EnVision™, Perkin Elmer. The obtained fluorescence ratios at 665/615 […] are then used to calculate the pEC50 values using Assay Explorer 3.3 Software (Accelrys, Inc.) by interpolation using an IP1 reference curve and subsequent sigmoidal curve fitting allowing for a variable hill slope.

Sequence of human GPR40 receptor (O14842 whole entry): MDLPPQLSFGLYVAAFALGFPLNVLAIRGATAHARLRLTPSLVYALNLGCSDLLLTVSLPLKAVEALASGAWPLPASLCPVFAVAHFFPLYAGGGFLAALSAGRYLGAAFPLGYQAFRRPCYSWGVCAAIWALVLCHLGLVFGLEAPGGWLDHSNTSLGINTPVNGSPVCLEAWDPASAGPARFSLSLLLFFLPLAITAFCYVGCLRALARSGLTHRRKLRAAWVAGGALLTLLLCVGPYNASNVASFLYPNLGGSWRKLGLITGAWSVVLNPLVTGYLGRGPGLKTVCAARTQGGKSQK

| SMILES | EC50 [nM] |
| --- | --- |
| O=C(O)C[C@@H]1COc2cc(O[C@@H]3CCc4c(Oc5ccccc5)ccc(F)c43)ccc21 [Example 1, {(S)-6-[(R)-7-Fluoro-4-phenoxy-indan-1-yloxy]-2,3-dihydro-benzofuran-3-yl}-acetic acid] | 4 |
| Cn1ncc2cc(Oc3ccc(F)c4c3CC[C@H]4Oc3ccc4c(c3)OC[C@H]4CC(=O)O)ccc21 [Example 45, {(S)-6-[(R)-7-Fluoro-4-(1-methyl-1H-indazol-5-yloxy)-indan-1-yloxy]-2,3-dihydro-benzofuran-3-yl}-acetic acid] | 7 |
| Cc1cc(Oc2ccc(F)c3c2CC[C@H]3Oc2ccc3c(c2)OC[C@H]3CC(=O)O)ccc1C#N [Example 21, {(S)-6-[(R)-4-(4-Cyano-3-methyl-phenoxy)-7-fluoro-4-indan-1-yloxy]-2,3-dihydro-benzofuran-3-yl}-acetic acid] | 4 |
| CS(=O)(=O)c1ccc(Oc2ccc(F)c3c2CC[C@H]3Oc2ccc3c(c2)OC[C@H]3CC(=O)O)cc1 [Example 18, {(S)-6-[(R)-7-Fluoro-4-(4-methylsulfonyl-phenoxy)-indan-1-yloxy]-2,3-dihydro-benzofuran-3-yl}-acetic acid] | 41 |
| Cc1cc(Oc2ccc(F)c3c2CC[C@H]3Oc2ccc3c(c2)OC[C@H]3CC(=O)O)cc(C)c1C#N [Example 49, {(S)-6-[(R)-4-(4-Cyano-3,5-dimethyl-phenoxy)-7-fluoro-indan-1-yloxy]-2,3-dihydro-benzofuran-3-yl}-acetic acid] | 12 |
| COc1cc(Oc2ccc(F)c3c2CC[C@H]3Oc2ccc3c(c2)OC[C@H]3CC(=O)O)ccn1 [Example 36, {(S)-6-[(R)-7-Fluoro-4-(2-methoxy-pyrid-4-yloxy)-indan-1-yloxy]-2,3-dihydro-benzofuran-3-yl}-acetic acid] | 4 |
| O=C(O)C[C@@H]1COc2cc(O[C@@H]3CCc4c(Oc5ccncc5)ccc(F)c43)ccc21 [Example 11, {(S)-6-[(R)-7-Fluoro-4-pyrid-4-yloxy-indan-1-yloxy]-2,3-dihydro-benzofuran-3-yl}-acetic acid] | 18 |
| N#Cc1ccc(Oc2ccc(F)c3c2CC[C@H]3Oc2ccc3c(c2)OC[C@H]3CC(=O)O)cc1F [Example 29, {(S)-6-[(R)-4-(4-Cyano-3-fluoro-phenoxy)-7-fluoro-indan-1-yloxy]-2,3-dihydro-benzofuran-3-yl}-acetic acid] | 6 |
| Cc1cc2c(cnn2C)cc1Oc1ccc(F)c2c1CC[C@H]2Oc1ccc2c(c1)OC[C@H]2CC(=O)O [Example 47, {(S)-6-[(R)-7-Fluoro-4-(1,6-dimethyl-1H-indazol-5-yloxy)-indan-1-yloxy]-2,3-dihydro-benzofuran-3-yl}-acetic acid] | 26 |
| O=C(O)C[C@@H]1COc2cc(O[C@@H]3CCc4c(Oc5ccc(CO)c(F)c5)ccc(F)c43)ccc21 [Example 28, {(S)-6-[(R)-7-Fluoro-4-(3-fluoro-4-hydroxymethyl-phenoxy)-indan-1-yloxy]-2,3-dihydro-benzofuran-3-yl}-acetic acid] | 8 |
| Cc1nc2cc(Oc3ccc(F)c4c3CC[C@H]4Oc3ccc4c(c3)OC[C@H]4CC(=O)O)ccc2s1 [Example 48, {(S)-6-[(R)-7-Fluoro-4-(2-methyl-benzothiazol-5-yloxy)-indan-1-yloxy]-2,3-dihydro-benzofuran-3-yl}-acetic acid] | 7 |
| Cc1nc2cc(Oc3ccc(F)c4c3CC[C@H]4Oc3ccc4c(c3)OC[C@H]4CC(=O)O)ccc2o1 [Example 55, {(S)-6-[(R)-7-Fluoro-4-(2-methyl-benzoxazol-5-yloxy)-indan-1-yloxy]-2,3-dihydro-benzofuran-3-yl}-acetic acid] | 6 |
| COc1ccc(Oc2ccc(F)c3c2CC[C@H]3Oc2ccc3c(c2)OC[C@H]3CC(=O)O)cn1 [Example 34, {(S)-6-[(R)-7-Fluoro-4-(2-methoxy-pyrid-5-yloxy)-indan-1-yloxy]-2,3-dihydro-benzofuran-3-yl}-acetic acid] | 5 |
| O=C(O)C[C@@H]1COc2cc(O[C@@H]3CCc4c(Oc5ccc(C(F)(F)F)cn5)ccc(F)c43)ccc21 [Example 14, {(S)-6-[(R)-7-Fluoro-4-(5-trifluoromethyl-pyrid-2-yloxy)-indan-1-yloxy]-2,3-dihydro-benzofuran-3-yl}-acetic acid] | 26 |
| N#Cc1ccc(Br)cc1Oc1ccc(F)c2c1CC[C@H]2Oc1ccc2c(c1)OC[C@H]2CC(=O)O [Example 50, {(S)-6-[(R)-4-(5-Bromo-2-cyano-phenoxy)-7-fluoro-indan-1-yloxy]-2,3-dihydro-benzofuran-3-yl}-acetic acid] | 6 |
| Cc1cccc(Oc2ccc(F)c3c2CC[C@H]3Oc2ccc3c(c2)OC[C@H]3CC(=O)O)n1 [Example 15, {(S)-6-[(R)-7-Fluoro-4-(6-methyl-pyrid-2-yloxy)-indan-1-yloxy]-2,3-dihydro-benzofuran-3-yl}-acetic acid] | 31 |

| SMILES | EC50 [nM] |
| --- | --- |
| N#Cc1ccc(F)c(Oc2ccc(F)c3c2CC[C@H]3Oc2ccc3c(c2)OC[C@H]3CC(=O)O)c1 [Example 54, {(S)-6-[(R)-4-(5-Cyano-2-fluoro-phenoxy)-7-fluoro-indan-1-yloxy]-2,3-dihydro-benzofuran-3-yl}-acetic acid] | 29 |
| COc1ncc(Oc2ccc(F)c3c2CC[C@H]3Oc2ccc3c(c2)OC[C@H]3CC(=O)O)cn1 [Example 35, {(S)-6-[(R)-7-Fluoro-4-(2-methoxy-pyrimid-5-yloxy)-indan-1-yloxy]-2,3-dihydro-benzofuran-3-yl}-acetic acid] | 79 |
| COc1ccc(Oc2ccc(F)c3c2CC[C@H]3Oc2ccc3c(c2)OC[C@H]3CC(=O)O)nc1 [Example 44, {(S)-6-[(R)-7-Fluoro-4-(5-methoxy-pyrid-2-yloxy)-indan-1-yloxy]-2,3-dihydro-benzofuran-3-yl}-acetic acid] | 19 |
| Cc1nc2ccc(Oc3ccc(F)c4c3CC[C@H]4Oc3ccc4c(c3)OC[C@H]4CC(=O)O)cc2o1 [Example 58, {(S)-6-[(R)-7-Fluoro-4-(2-methyl-benzoxazol-6-yloxy)-indan-1-yloxy]-2,3-dihydro-benzofuran-3-yl}-acetic acid] | 3 |
| N#Cc1ccc(F)cc1Oc1ccc(F)c2c1CC[C@H]2Oc1ccc2c(c1)OC[C@H]2CC(=O)O [Example 30, {(S)-6-[(R)-4-(2-Cyano-5-fluoro-phenoxy)-7-fluoro-indan-1-yloxy]-2,3-dihydro-benzofuran-3-yl}-acetic acid] | 11 |
| COc1ccc(Oc2ccc(F)c3c2CC[C@H]3Oc2ccc3c(c2)OC[C@H]3CC(=O)O)nn1 [Example 16, {(S)-6-[(R)-7-Fluoro-4-(6-methoxy-pyridazin-3-yloxy)-indan-1-yloxy]-2,3-dihydro-benzofuran-3-yl}-acetic acid] | 138 |
| CN(C)c1ccc(Oc2ccc(F)c3c2CC[C@H]3Oc2ccc3c(c2)OC[C@H]3CC(=O)O)cn1 [Example 31] | 120 |
| Cc1cc(C#N)ccc1Oc1ccc(F)c2c1CC[C@H]2Oc1ccc2c(c1)OC[C@H]2CC(=O)O [Example 24, {(S)-6-[(R)-4-(4-Cyano-2-methyl-phenoxy)-7-fluoro-indan-1-yloxy]-2,3-dihydro-benzofuran-3-yl}-acetic acid] | 3 |
| O=C(O)C[C@@H]1COc2cc(O[C@@H]3CCc4c(Oc5ncc6ccccc6n5)ccc(F)c43)ccc21 [Example 43, {(S)-6-[(R)-7-Fluoro-4-(Quinazolin-2-yloxy)-indan-1-yloxy]-2,3-dihydro-benzofuran-3-yl}-acetic acid] | 34 |
| Cc1nc2ccc(Oc3ccc(F)c4c3CC[C@H]4Oc3ccc4c(c3)OC[C@H]4CC(=O)O)cc2s1 [Example 59, {(S)-6-[(R)-7-Fluoro-4-(2-methyl-benzothiazol-6-yloxy)-indan-1-yloxy]-2,3-dihydro-benzofuran-3-yl}-acetic acid] | 5 |
| COc1cccc(Oc2ccc(F)c3c2CC[C@H]3Oc2ccc3c(c2)OC[C@H]3CC(=O)O)c1 [Example 2, {(S)-6-[(R)-7-Fluoro-4-(3-methoxy-phenoxy)-indan-1-yloxy]-2,3-dihydro-benzofuran-3-yl}-acetic acid] | 6 |
| N#Cc1ccccc1Oc1ccc(F)c2c1CC[C@H]2Oc1ccc2c(c1)OC[C@H]2CC(=O)O [Example 17, {(S)-6-[(R)-4-(2-Cyano-phenoxy)-7-fluoro-indan-1-yloxy]-2,3-dihydro-benzofuran-3-yl}-acetic acid] | 4 |
| Cc1noc2cc(Oc3ccc(F)c4c3CC[C@H]4Oc3ccc4c(c3)OC[C@H]4CC(=O)O)ccc12 [Example 61, {(S)-6-[(R)-7-Fluoro-4-(3-methyl-benzo[d]isoxazol-6-yloxy)-indan-1-yloxy]-2,3-dihydro-benzofuran-3-yl}-acetic acid] | 3 |
| COc1cc(Oc2ccc(F)c3c2CC[C@H]3Oc2ccc3c(c2)OC[C@H]3CC(=O)O)ccc1C#N [Example 37, {(S)-6-[(R)-4-(4-Cyano-3-methoxy-phenoxy)-7-fluoro-indan-1-yloxy]-2,3-dihydro-benzofuran-3-yl}-acetic acid] | 5 |
| Cn1ccc2cc(Oc3ccc(F)c4c3CC[C@H]4Oc3ccc4c(c3)OC[C@H]4CC(=O)O)ccc21 [Example 38, {(S)-6-[(R)-7-Fluoro-4-(1-methyl-1H-indol-5-yloxy)-indan-1-yloxy]-2,3-dihydro-benzofuran-3-yl}-acetic acid] | 6 |
| N#Cc1ccc(Oc2ccc(F)c3c2CC[C@H]3Oc2ccc3c(c2)OC[C@H]3CC(=O)O)c(C#N)c1 [Example 41, {(S)-6-[(R)-4-(2,4-Dicyano-phenoxy)-7-fluoro-indan-1-yloxy]-2,3-dihydro-benzofuran-3-yl}-acetic acid] | 17 |
